# Data reported in patent US20240116971A1, “NMN AND DERIVATIVES FOR ITS USE IN THE TREATMENT OF DEPRESSION AND/OR ANXIETY IN PATIENTS HAVING A FORM OF PARKINSONISM” (Nuvamid SA, priority 2021, published 2024).
# System: patient having MSA
# Test: UMSARS questionary before and after 6 months of NMN (beta) in one patient
# Assay type: in vivo, human
# Description: A person presenting with parkinsonism was given NMN (beta) for 6 months. […] They indicated difficulties to get out of bed in the morning and feeling low and depressed during the day. Administration of 125 mg of NMN (beta) as an oral tablet occurred once per day in the morning. The patient has taken the […] questionary before the beginning of the study (D0) and after 6 months of treatment.
# [1] = 6 months vs D0, daily administration
smiles,measurement,setting,value
"NC(=O)c1ccc[n+]([C@@H]2O[C@H](COP(=O)(O)O)[C@@H](O)[C@H]2O)c1 [beta-NMN, nicotinamide mononucleotide]",items of the UMSARS questionary improved,"6 months vs D0, 125 mg/day oral","improved items 1, 13, 14, 16-18, 22, 26, 28, 29, 34-36"
same,clinical signs related to motricity,[1],"did not improve most of the clinical signs related to motricity apart from items 1, 13, 14 and 16"
same,symptoms related to the depression,[1],improved the symptoms related to the depression
